According to paper PMC6920776, “Exploring Biological Activity of 4-Oxo-4H-furo[2,3-h]chromene Derivatives as Potential Multi-Target-Directed Ligands Inhibiting Cholinesterases, β-Secretase, Cyclooxygenase-2, and Lipoxygenase-5/15” (Biomolecules, 2019):
“And” between values parts separate entries of the source, which are not always exact repeats. Identical values can stand only once.

Test system: not listed separately
Experiment: DPPH radical scavenging assay
Details: 45 min in the dark, triplicate
Procedure: The DPPH radical scavenging activity of compounds 2a–i and 3a–i was evaluated following the literature method by Zhu et al.. The compounds were evaluated against ascorbic acid (Sigma Aldrich, Saint Louis, Missouri, USA) as a positive control. Various concentrations of the test compounds and control (0 µM to 40 µM) in DMSO were mixed with a solution of DPPH (0.20 mM) in methanol. The mixtures were incubated in the dark for 45 min and then the absorbances were recorded at 512 nm using Varioskan flash microplate spectrophotometer reader. All tests and analyses were run in triplicate and averaged. The inhibition was calculated in terms of percentage using the formula below: DPPH radical scavenged (%)=AbC − AbS/AbC×100 where AbC is absorbance of control and AbS the absorbance of the test sample.

Structure (SMILES)	IC50
O=c1c(C=NNc2ccc(C(F)(F)F)cc2)coc2c1ccc1oc(-c3cccc(Cl)c3)cc12 [Compound 3d]	32.5 ± 0.03 µM
O=Cc1coc2c(ccc3oc(-c4ccccc4)cc32)c1=O [Compound 2a, 4-Oxo-8-phenyl-4H-furo[2,3-h]chromene-3-carbaldehyde]	10.1 ± 0.03 µM
COc1cc(OC)cc(-c2cc3c(ccc4c(=O)c(C=O)coc43)o2)c1 [Compound 2g, 8-(3,5-Dimethoxyphenyl)-4-oxo-4H-furo[2,3-h]chromene-3-carbaldehyde]	8.3 ± 0.02 µM
O=Cc1coc2c(ccc3oc(-c4cccc(Cl)c4)cc32)c1=O [Compound 2d, 8-(3-Chlorophenyl)-4-oxo-4H-furo[2,3-h]chromene-3-carbaldehyde]	29.1 ± 0.01 µM
O=Cc1coc2c(ccc3oc(-c4cccc(F)c4)cc32)c1=O [Compound 2b, 8-(3-Fluorophenyl)-4-oxo-4H-furo[2,3-h]chromene-3-carbaldehyde]	27.6 ± 0.02 µM
O=Cc1coc2c(ccc3oc(-c4ccc(F)cc4)cc32)c1=O [Compound 2c, 8-(4-Fluorophenyl)-4-oxo-4H-furo[2,3-h]chromene-3-carbaldehyde]	7.5 ± 0.02 µM
O=c1c(C=NNc2ccc(C(F)(F)F)cc2)coc2c1ccc1oc(-c3ccccc3)cc12 [Compound 3a]	15.3 ± 0.01 µM

Target: T1, human LOX-5 (Homo sapiens, UniProt P09917)
T1 construct: purchased BioVision K980
T1 sequence (P09917 1-674): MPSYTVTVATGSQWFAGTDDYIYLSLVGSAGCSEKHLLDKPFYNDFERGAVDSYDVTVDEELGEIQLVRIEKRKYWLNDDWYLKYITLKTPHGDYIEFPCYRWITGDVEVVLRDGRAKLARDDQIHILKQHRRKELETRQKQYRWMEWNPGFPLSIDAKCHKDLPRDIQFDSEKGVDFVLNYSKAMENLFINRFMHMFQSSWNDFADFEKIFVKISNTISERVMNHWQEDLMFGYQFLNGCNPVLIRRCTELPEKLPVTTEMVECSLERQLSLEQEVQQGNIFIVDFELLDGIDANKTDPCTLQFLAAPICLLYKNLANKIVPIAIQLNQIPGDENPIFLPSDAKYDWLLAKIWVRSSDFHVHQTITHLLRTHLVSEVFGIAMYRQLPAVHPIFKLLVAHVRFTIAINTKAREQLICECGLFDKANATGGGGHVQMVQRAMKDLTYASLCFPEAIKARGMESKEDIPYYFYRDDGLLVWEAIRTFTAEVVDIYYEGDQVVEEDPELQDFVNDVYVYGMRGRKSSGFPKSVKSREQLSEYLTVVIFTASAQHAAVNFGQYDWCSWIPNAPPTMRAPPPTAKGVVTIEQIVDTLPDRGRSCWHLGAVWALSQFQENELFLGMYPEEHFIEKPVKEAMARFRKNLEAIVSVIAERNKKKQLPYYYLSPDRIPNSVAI
Experiment: Human LOX-5 inhibitory assay
Type: biochemical
Details: not given

Structure (SMILES)	IC50
COc1cc(OC)cc(-c2cc3c(ccc4c(=O)c(C=O)coc43)o2)c1 [Compound 2g, 8-(3,5-Dimethoxyphenyl)-4-oxo-4H-furo[2,3-h]chromene-3-carbaldehyde]	24.6 ± 0.02 µM

Target: T2, COX-2 (Homo sapiens, UniProt P35354)
T2 construct: purchased Bio Vision K547
T2 sequence (P35354 18-604): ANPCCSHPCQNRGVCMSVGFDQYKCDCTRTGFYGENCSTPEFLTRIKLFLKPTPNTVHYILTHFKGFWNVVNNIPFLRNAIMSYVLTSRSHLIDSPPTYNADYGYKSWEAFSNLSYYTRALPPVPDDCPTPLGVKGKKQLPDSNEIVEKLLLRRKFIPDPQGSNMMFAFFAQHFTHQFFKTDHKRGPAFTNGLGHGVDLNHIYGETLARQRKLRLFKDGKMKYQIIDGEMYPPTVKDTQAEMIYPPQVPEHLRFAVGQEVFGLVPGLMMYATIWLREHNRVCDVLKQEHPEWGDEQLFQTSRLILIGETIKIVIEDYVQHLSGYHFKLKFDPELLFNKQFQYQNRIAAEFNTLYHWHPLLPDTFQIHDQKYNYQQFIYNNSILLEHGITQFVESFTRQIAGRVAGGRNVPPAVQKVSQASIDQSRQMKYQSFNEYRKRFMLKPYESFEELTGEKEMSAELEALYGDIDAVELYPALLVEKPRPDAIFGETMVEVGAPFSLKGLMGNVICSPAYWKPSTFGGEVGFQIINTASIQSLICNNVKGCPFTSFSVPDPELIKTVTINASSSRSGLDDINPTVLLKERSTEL
Experiment: biochemical
Details: duplicate runs
Procedure: The reagents for the COX-2 assay were prepared according to the standard protocol enclosed in the Cyclooxygenase inhibitor screening kit (Item No. K547; Bio Vision, Milpitas Blvd, Milpitas, CA USA). […] The assay mixtures in a 96-well plate were distributed as follows: two wells taken as enzyme control (10µL assay buffer) and two wells as inhibitor control (2 µL of celecoxib and 8 µL of COX assay buffer). Ten microliters of the test compounds concentrations and those of celecoxib were added to the remaining wells with the aid of a multi-channel pipette. Then, 80 µL of the reaction mix (a mixture of 76 µL COX assay buffer, 1 µL of COX probe, 2 µL of diluted COX cofactor and 1 µL of COX-2 enzyme) were added to the reaction mixture. The assay mixtures in the 96-well plate were incubated for 5 min. The reactions were initiated by the addition of 10 µL of diluted arachidonic acid and sodium hydroxide solution (10 µL of arachidonic acid and 90 µL of sodium hydroxide) to each well. The absorbance was measured using a Varioskan flash microplate spectrophotometer, and the IC50 was calculated with the aid of a graph pad prism

Structure (SMILES)	IC50
O=c1c(C=NNc2ccc(C(F)(F)F)cc2)coc2c1ccc1oc(-c3cccc(Cl)c3)cc12 [Compound 3d]	30.2 ± 0.03 µM
O=Cc1coc2c(ccc3oc(-c4ccccc4)cc32)c1=O [Compound 2a, 4-Oxo-8-phenyl-4H-furo[2,3-h]chromene-3-carbaldehyde]	25.6 ± 0.01 µM
COc1cc(OC)cc(-c2cc3c(ccc4c(=O)c(C=O)coc43)o2)c1 [Compound 2g, 8-(3,5-Dimethoxyphenyl)-4-oxo-4H-furo[2,3-h]chromene-3-carbaldehyde]	23.5 ± 0.03 µM
O=Cc1coc2c(ccc3oc(-c4cccc(Cl)c4)cc32)c1=O [Compound 2d, 8-(3-Chlorophenyl)-4-oxo-4H-furo[2,3-h]chromene-3-carbaldehyde]	23.1 ± 0.02 µM
O=Cc1coc2c(ccc3oc(-c4cccc(F)c4)cc32)c1=O [Compound 2b, 8-(3-Fluorophenyl)-4-oxo-4H-furo[2,3-h]chromene-3-carbaldehyde]	43.7 ± 0.01 µM
O=Cc1coc2c(ccc3oc(-c4ccc(F)cc4)cc32)c1=O [Compound 2c, 8-(4-Fluorophenyl)-4-oxo-4H-furo[2,3-h]chromene-3-carbaldehyde]	15.8 ± 0.03 µM
O=c1c(C=NNc2ccc(C(F)(F)F)cc2)coc2c1ccc1oc(-c3ccccc3)cc12 [Compound 3a]	29.7 ± 0.02 µM

Target: T3, soybean lipoxygenases-15 (LOX-15) (Glycine max, UniProt P08170)
T3 construct: purchased Cayman Chemicals 760700
T3 sequence (P08170 1-839): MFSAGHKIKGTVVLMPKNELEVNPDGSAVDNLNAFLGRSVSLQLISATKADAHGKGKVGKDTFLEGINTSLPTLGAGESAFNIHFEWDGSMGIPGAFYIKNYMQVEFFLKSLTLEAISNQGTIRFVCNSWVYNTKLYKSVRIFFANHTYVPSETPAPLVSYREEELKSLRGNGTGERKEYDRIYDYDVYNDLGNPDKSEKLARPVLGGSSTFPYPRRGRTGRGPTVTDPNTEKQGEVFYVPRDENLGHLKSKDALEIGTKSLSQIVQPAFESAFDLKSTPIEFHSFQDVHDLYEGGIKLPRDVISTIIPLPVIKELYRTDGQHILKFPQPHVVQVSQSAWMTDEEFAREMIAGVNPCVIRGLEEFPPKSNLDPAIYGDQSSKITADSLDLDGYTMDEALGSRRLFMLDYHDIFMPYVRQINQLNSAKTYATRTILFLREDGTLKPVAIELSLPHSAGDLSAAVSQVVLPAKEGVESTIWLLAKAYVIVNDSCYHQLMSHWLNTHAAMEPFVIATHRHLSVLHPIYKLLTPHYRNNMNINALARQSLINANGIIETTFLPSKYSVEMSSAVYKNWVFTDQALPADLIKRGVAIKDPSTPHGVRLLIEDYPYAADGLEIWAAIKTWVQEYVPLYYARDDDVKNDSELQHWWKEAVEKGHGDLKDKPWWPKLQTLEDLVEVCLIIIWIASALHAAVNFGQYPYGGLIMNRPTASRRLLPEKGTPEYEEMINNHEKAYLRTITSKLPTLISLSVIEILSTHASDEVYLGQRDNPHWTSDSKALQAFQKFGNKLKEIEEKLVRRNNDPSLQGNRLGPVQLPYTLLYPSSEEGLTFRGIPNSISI
Experiment: Soybean LOX-15 inhibitory assay
Type: biochemical
Details: not given

Structure (SMILES)	IC50
O=c1c(C=NNc2ccc(C(F)(F)F)cc2)coc2c1ccc1oc(-c3cccc(Cl)c3)cc12 [Compound 3d]	11.8 ± 0.03 µM
O=Cc1coc2c(ccc3oc(-c4ccccc4)cc32)c1=O [Compound 2a, 4-Oxo-8-phenyl-4H-furo[2,3-h]chromene-3-carbaldehyde]	12.5 ± 0.03 µM
COc1cc(OC)cc(-c2cc3c(ccc4c(=O)c(C=O)coc43)o2)c1 [Compound 2g, 8-(3,5-Dimethoxyphenyl)-4-oxo-4H-furo[2,3-h]chromene-3-carbaldehyde]	10.6 ± 0.04 µM
O=Cc1coc2c(ccc3oc(-c4cccc(Cl)c4)cc32)c1=O [Compound 2d, 8-(3-Chlorophenyl)-4-oxo-4H-furo[2,3-h]chromene-3-carbaldehyde]	22.9 ± 0.02 µM
O=Cc1coc2c(ccc3oc(-c4cccc(F)c4)cc32)c1=O [Compound 2b, 8-(3-Fluorophenyl)-4-oxo-4H-furo[2,3-h]chromene-3-carbaldehyde]	18.6 ± 0.01 µM
O=Cc1coc2c(ccc3oc(-c4ccc(F)cc4)cc32)c1=O [Compound 2c, 8-(4-Fluorophenyl)-4-oxo-4H-furo[2,3-h]chromene-3-carbaldehyde]	14.3 ± 0.01 µM
O=c1c(C=NNc2ccc(C(F)(F)F)cc2)coc2c1ccc1oc(-c3ccccc3)cc12 [Compound 3a]	16.3 ± 0.01 µM

Target: T4, BChE (Homo sapiens, UniProt P06276)
T4 construct: purchased Cloud-Clone Corp., through BIOCOM Africa (Pty) Ltd RPC348Hu0 2_100
T4 sequence (P06276 29-602): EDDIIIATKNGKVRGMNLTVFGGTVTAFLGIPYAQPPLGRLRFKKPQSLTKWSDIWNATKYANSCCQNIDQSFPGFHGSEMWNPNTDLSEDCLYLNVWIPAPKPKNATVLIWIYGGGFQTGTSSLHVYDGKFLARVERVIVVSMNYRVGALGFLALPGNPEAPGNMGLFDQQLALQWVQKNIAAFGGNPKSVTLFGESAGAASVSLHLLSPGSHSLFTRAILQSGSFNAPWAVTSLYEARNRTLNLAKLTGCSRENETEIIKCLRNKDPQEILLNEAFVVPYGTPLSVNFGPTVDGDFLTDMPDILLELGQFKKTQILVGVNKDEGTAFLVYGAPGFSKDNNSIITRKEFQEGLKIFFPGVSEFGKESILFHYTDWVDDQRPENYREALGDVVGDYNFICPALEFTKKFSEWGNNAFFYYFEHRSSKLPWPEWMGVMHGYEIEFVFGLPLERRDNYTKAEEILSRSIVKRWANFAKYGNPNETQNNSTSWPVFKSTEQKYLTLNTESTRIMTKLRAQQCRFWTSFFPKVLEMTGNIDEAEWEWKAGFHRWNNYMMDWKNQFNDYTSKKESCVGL
Experiment: biochemical
Details: Ellman's method, triplicate
Procedure: Their anti-AChE and BChE activities were determined by spectrophotometric Ellman’s method [42]. […] The mixtures were incubated for 15 min at RT. The reaction was initiated by adding 10 µL of a mixture solution of 5 mM 5,50-dithio-bis-nitrobenzoic acid (DTNB) in 50 mM tris buffer (pH 7.7) and 10 µL acetylthiocholine (ASCh) (5 mM) in 50 mM tris buffer, pH 7.7. The hydrolysis of ASCh was determined by monitoring the formation of the yellow 5-thio-2-nitrobenzoate anion resulting from reaction of DTNB with thiocholines (SCh).
The IC50 values were determined graphically from inhibition curves (inhibitor concentration and absorbance) using the graph pad prism.

Structure (SMILES)	IC50
O=c1c(C=NNc2ccc(C(F)(F)F)cc2)coc2c1ccc1oc(-c3cccc(Cl)c3)cc12 [Compound 3d]	30.1 ± 0.03 µM
O=Cc1coc2c(ccc3oc(-c4ccccc4)cc32)c1=O [Compound 2a, 4-Oxo-8-phenyl-4H-furo[2,3-h]chromene-3-carbaldehyde]	34.2 ± 0.02 µM
COc1cc(OC)cc(-c2cc3c(ccc4c(=O)c(C=O)coc43)o2)c1 [Compound 2g, 8-(3,5-Dimethoxyphenyl)-4-oxo-4H-furo[2,3-h]chromene-3-carbaldehyde]	23.2 ± 0.04 µM
O=Cc1coc2c(ccc3oc(-c4cccc(Cl)c4)cc32)c1=O [Compound 2d, 8-(3-Chlorophenyl)-4-oxo-4H-furo[2,3-h]chromene-3-carbaldehyde]	13.2 ± 0.05 µM
O=Cc1coc2c(ccc3oc(-c4cccc(F)c4)cc32)c1=O [Compound 2b, 8-(3-Fluorophenyl)-4-oxo-4H-furo[2,3-h]chromene-3-carbaldehyde]	9.2 ± 0.01 µM
O=Cc1coc2c(ccc3oc(-c4ccc(F)cc4)cc32)c1=O [Compound 2c, 8-(4-Fluorophenyl)-4-oxo-4H-furo[2,3-h]chromene-3-carbaldehyde]	28.3 ± 0.03 µM
O=c1c(C=NNc2ccc(C(F)(F)F)cc2)coc2c1ccc1oc(-c3ccccc3)cc12 [Compound 3a]	18.7 ± 0.03 µM

Target: AChE (Homo sapiens, UniProt P22303)
Sequence (P22303 32-614): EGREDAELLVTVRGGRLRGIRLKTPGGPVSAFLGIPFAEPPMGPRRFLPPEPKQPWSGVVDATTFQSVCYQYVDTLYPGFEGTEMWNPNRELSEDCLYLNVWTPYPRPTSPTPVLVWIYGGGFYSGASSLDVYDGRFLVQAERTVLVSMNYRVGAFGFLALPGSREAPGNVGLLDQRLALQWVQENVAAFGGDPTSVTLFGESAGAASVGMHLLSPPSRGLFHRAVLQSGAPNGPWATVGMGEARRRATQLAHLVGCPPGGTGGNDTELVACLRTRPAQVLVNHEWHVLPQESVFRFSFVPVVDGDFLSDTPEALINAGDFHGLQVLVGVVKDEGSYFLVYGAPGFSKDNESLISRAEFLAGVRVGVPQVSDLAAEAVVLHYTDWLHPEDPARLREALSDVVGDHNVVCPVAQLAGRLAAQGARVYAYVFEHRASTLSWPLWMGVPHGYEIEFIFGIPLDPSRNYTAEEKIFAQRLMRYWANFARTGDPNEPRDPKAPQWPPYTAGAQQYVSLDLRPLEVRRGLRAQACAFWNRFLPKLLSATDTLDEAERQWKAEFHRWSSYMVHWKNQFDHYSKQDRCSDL
Experiment: biochemical
Details: SI = IC50 (AChE)/IC50 (BChE)

Structure (SMILES)	Selectivity index (SI)
O=c1c(C=NNc2ccc(C(F)(F)F)cc2)coc2c1ccc1oc(-c3cccc(Cl)c3)cc12 [Compound 3d]	0.8
O=Cc1coc2c(ccc3oc(-c4ccccc4)cc32)c1=O [Compound 2a, 4-Oxo-8-phenyl-4H-furo[2,3-h]chromene-3-carbaldehyde]	0.8
COc1cc(OC)cc(-c2cc3c(ccc4c(=O)c(C=O)coc43)o2)c1 [Compound 2g, 8-(3,5-Dimethoxyphenyl)-4-oxo-4H-furo[2,3-h]chromene-3-carbaldehyde]	1.1
O=Cc1coc2c(ccc3oc(-c4cccc(Cl)c4)cc32)c1=O [Compound 2d, 8-(3-Chlorophenyl)-4-oxo-4H-furo[2,3-h]chromene-3-carbaldehyde]	1.5
O=Cc1coc2c(ccc3oc(-c4cccc(F)c4)cc32)c1=O [Compound 2b, 8-(3-Fluorophenyl)-4-oxo-4H-furo[2,3-h]chromene-3-carbaldehyde]	1.7
O=Cc1coc2c(ccc3oc(-c4ccc(F)cc4)cc32)c1=O [Compound 2c, 8-(4-Fluorophenyl)-4-oxo-4H-furo[2,3-h]chromene-3-carbaldehyde]	1.1
O=c1c(C=NNc2ccc(C(F)(F)F)cc2)coc2c1ccc1oc(-c3ccccc3)cc12 [Compound 3a]	0.8

Same assay, conditions: recombinant human AChE, Ellman's method, triplicate

Structure (SMILES)	IC50
O=c1c(C=NNc2ccc(C(F)(F)F)cc2)coc2c1ccc1oc(-c3cccc(Cl)c3)cc12 [Compound 3d]	24.3 ± 0.03 µM
O=Cc1coc2c(ccc3oc(-c4ccccc4)cc32)c1=O [Compound 2a, 4-Oxo-8-phenyl-4H-furo[2,3-h]chromene-3-carbaldehyde]	25.1 ± 0.04 µM
COc1cc(OC)cc(-c2cc3c(ccc4c(=O)c(C=O)coc43)o2)c1 [Compound 2g, 8-(3,5-Dimethoxyphenyl)-4-oxo-4H-furo[2,3-h]chromene-3-carbaldehyde]	25.3 ± 0.02 µM
O=Cc1coc2c(ccc3oc(-c4cccc(Cl)c4)cc32)c1=O [Compound 2d, 8-(3-Chlorophenyl)-4-oxo-4H-furo[2,3-h]chromene-3-carbaldehyde]	19.2 µM and 19.8 µM
O=Cc1coc2c(ccc3oc(-c4cccc(F)c4)cc32)c1=O [Compound 2b, 8-(3-Fluorophenyl)-4-oxo-4H-furo[2,3-h]chromene-3-carbaldehyde]	15.2 ± 0.03 µM
O=Cc1coc2c(ccc3oc(-c4ccc(F)cc4)cc32)c1=O [Compound 2c, 8-(4-Fluorophenyl)-4-oxo-4H-furo[2,3-h]chromene-3-carbaldehyde]	30.4 ± 0.01 µM
O=c1c(C=NNc2ccc(C(F)(F)F)cc2)coc2c1ccc1oc(-c3ccccc3)cc12 [Compound 3a]	15.4 ± 0.01 µM
